Key:
[1] = target: T1, LCRK3 (cdc2-related protein kinase 3) (Leishmania mexicana, UniProt O15851); test: luminescent kinase assay (Promega); assay type: biochemical; settings: read-out: L CRK3
T1 construct: gene crk3; recombinant, purified from transgenic L. mexicana promastigotes (homologous expression, gift of K. Grant)
T1 sequence (O15851 1-311): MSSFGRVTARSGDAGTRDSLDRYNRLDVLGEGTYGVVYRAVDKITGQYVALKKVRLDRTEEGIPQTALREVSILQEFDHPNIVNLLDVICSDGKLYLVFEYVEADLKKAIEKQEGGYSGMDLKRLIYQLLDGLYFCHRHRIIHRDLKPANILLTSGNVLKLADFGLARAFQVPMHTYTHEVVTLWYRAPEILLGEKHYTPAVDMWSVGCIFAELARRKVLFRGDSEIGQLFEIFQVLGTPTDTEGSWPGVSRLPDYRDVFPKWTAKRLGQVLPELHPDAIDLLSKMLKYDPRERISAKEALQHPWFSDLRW

[2] = target: T2, LGSK-3 (leishmanial Glycogen Synthase Kinase-3 short) (Leishmania donovani, UniProt A6N857); test: luminescent kinase assay (Promega); assay type: biochemical; settings: read-out: L GSK-3
T2 construct: recombinant, purified from L. donovani over-expressing transfectants (homologous expression); A6N857 is printed for the L. donovani homology model and alignment
T2 sequence (A6N857 1-355): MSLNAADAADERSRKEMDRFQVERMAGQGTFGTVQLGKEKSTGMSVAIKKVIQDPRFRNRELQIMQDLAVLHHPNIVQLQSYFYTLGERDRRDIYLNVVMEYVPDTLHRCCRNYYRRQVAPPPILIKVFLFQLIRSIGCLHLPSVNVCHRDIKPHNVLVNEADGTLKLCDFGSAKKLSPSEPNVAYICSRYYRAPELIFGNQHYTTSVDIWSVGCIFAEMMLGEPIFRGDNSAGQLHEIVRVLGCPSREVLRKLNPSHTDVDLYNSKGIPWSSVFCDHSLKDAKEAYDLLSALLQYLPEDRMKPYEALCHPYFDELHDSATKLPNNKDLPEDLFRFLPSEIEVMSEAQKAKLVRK

In the case of `Cc1cc2c(cc1Br)NC(=O)C2=C1Nc2ccccc2C1=NO` [5-Me-6-BIO, 5-methyl-6-bromoindirubin-3′-oxime], the IC50 [1] is reported as 650 ± 90 nM and the IC50 [2] is reported as 90 ± 20 nM.
